Measured values as given in US12660819B2, “Herbicidal derivatives” (SYNGENTA CROP PROTECTION AG, priority 2020, dated 2026).

Assays:
Assay type in all cases: in vivo
[1] = tested on: Ipomoea hederacea (IPOHE); assay: Pre-emergence Test (glasshouse, percentage damage to the plant); details: 1000 g/ha unless otherwise stated, five-point scale
[2] = tested on: Amaranthus retoflexus (AMARE); assay: as above; details: 1000 g/ha unless otherwise stated, five-point scale
Solanum nigrum (SOLNI) [3] = assay: Post-emergence Test (glasshouse, percentage damage to the plant); details: post-emergence spray, 1000 g/ha unless otherwise stated, evaluated after 13 days
Outline: (§1)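 Seeds sown in standard soil in a glasshouse (24/16 °C day/night, 14 h light, 65% humidity), then sprayed with an aqueous solution of the compound formulated in acetone/water 50:50 with 0.5% Tween 20 at 1000 g/ha unless otherwise stated. Percentage damage was scored after 13 days on a five-point scale (5=81-100%; 1=0-20%).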

[4] = tested on: Amaranthus retoflexus (AMARE); assay: as above; details: post-emergence spray, 1000 g/ha unless otherwise stated, evaluated after 13 days
Outline: as §1

Lolium perenne (LOLPE) [5] = assay: as above; details: post-emergence spray, 1000 g/ha unless otherwise stated, evaluated after 13 days
Outline: as §1

[6] = tested on: Echinochloa crus-galli (ECHCG); assay: as above; details: post-emergence spray, 1000 g/ha unless otherwise stated, evaluated after 13 days
Outline: as §1

Setaria faberi (SETFA) [7] = assay: as above; details: post-emergence spray, 1000 g/ha unless otherwise stated, evaluated after 13 days
Outline: (§2)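 After sowing in standard soil, pots were kept at 24/16 °C (day/night), 14 h light and 65% humidity. They were sprayed at 1000 g/ha unless otherwise stated, watered twice daily, and assessed for percentage damage at 13 days on a 1–5 scale.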

[8] = tested on: Ipomoea hederacea (IPOHE); assay: as above; details: post-emergence spray, 1000 g/ha unless otherwise stated, evaluated after 13 days
Outline: as §2

Setaria faberi (SETFA) [9] = assay: Pre-emergence Test (glasshouse, percentage damage to the plant); details: 1000 g/ha unless otherwise stated, five-point scale
Lolium perenne (LOLPE) [10] = assay: as above; details: 1000 g/ha unless otherwise stated, five-point scale
Solanum nigrum (SOLNI) [11] = assay: as above; details: 1000 g/ha unless otherwise stated, five-point scale
[12] = tested on: Echinochloa crus-galli (ECHCG); assay: as above; details: 1000 g/ha unless otherwise stated, five-point scale

Compound | percentage damage to the plant, IPOHE [1] | percentage damage to the plant, AMARE [2] | Post-emergence Test SOLNI, percentage damage to the plant (five-point scale) (Solanum nigrum (SOLNI) [3]) | Post-emergence Test AMARE, percentage damage to the plant (five-point scale) [4] | Post-emergence Test LOLPE, percentage damage to the plant (five-point scale) (Lolium perenne (LOLPE) [5]) | Post-emergence Test ECHCG, percentage damage to the plant (five-point scale) [6] | Post-emergence Test SETFA, percentage damage to the plant (five-point scale) (Setaria faberi (SETFA) [7]) | Post-emergence Test IPOHE, percentage damage to the plant (five-point scale) [8] | percentage damage to the plant, SETFA (Setaria faberi (SETFA) [9]) | percentage damage to the plant, LOLPE (Lolium perenne (LOLPE) [10]) | percentage damage to the plant, SOLNI (Solanum nigrum (SOLNI) [11]) | percentage damage to the plant, ECHCG [12]
CCn1c(C)c(-c2ccccn2)c(=O)c(C(=O)O)c1-c1ccc(Cl)c(Cl)c1.Cl [Compound 28, 2-(3,4-dichlorophenyl)-1-ethyl-6-methyl-4-oxo-5-pyridin-1-ium-2-yl-pyridine-3-carboxylic acid;chloride] | 3 (3=41-60%) | 1 (1=0-20%) | 3 (3=41-60%) | 2 (2=21-40%) | 2 (2=21-40%) | 2 (2=21-40%) | 3 (3=41-60%) | 4 (4=61-80%) | 1 (1=0-20%) | 1 (1=0-20%) | 2 (2=21-40%) | 1 (1=0-20%)
CCn1c(C)c(-c2ccc(OCc3ccccc3)cc2)c(=O)c(C(=O)O)c1-c1ccc(Cl)c(Cl)c1 [Compound 34, 5-(4-benzyloxyphenyl)-2-(3,4-dichlorophenyl)-1-ethyl-6-methyl-4-oxo-pyridine-3-carboxylic acid] | 1 (1=0-20%) | 3 (3=41-60%) | 4 (4=61-80%) | 4 (4=61-80%) | 1 (1=0-20%) | 2 (2=21-40%) | 2 (2=21-40%) | 1 (1=0-20%) | 3 (3=41-60%) | 2 (2=21-40%) | 2 (2=21-40%) | 1 (1=0-20%)
CCn1c(C)c(-c2ccsc2)c(=O)c(C(=O)O)c1-c1ccc(Cl)c(Cl)c1 [Compound 30, 2-(3,4-dichlorophenyl)-1-ethyl-6-methyl-4-oxo-5-(3-thienyl)pyridine-3-carboxylic acid] | 2 (2=21-40%) | 1 (1=0-20%) | 3 (3=41-60%) | 4 (4=61-80%) | 2 (2=21-40%) | 2 (2=21-40%) | 3 (3=41-60%) | 3 (3=41-60%) | 4 (4=61-80%) | 2 (2=21-40%) | 2 (2=21-40%) | 3 (3=41-60%)
CCn1c(C)c(-c2ccccc2Cl)c(=O)c(C(=O)O)c1-c1ccc(Cl)c(Cl)c1 [Compound 13, 5-(2-chlorophenyl)-2-(3,4-dichlorophenyl)-1-ethyl-6-methyl-4-oxo-pyridine-3-carboxylic acid] | 4 (4=61-80%) | 4 (4=61-80%) | 3 (3=41-60%) | 4 (4=61-80%) | 4 (4=61-80%) | 4 (4=61-80%) | 4 (4=61-80%) | 4 (4=61-80%) | 5 (5=81-100%) | 2 (2=21-40%) | 4 (4=61-80%) | 5 (5=81-100%)
